Laboratory results from article PMC8229335, “Screening of Novel Laccase Producers—Isolation and Characterization of Cold-Adapted Laccase from Kabatiella bupleuri G3 Capable of Synthetic Dye Decolorization” (Biomolecules, 2021).

Target: T1, K. bupleuri laccase G3 (Aureobasidium bupleuri, UniProt A0A8F5DNG6)
T1 construct: about 70-75 kDa by SDS-PAGE
T1 sequence (A0A8F5DNG6 21-645): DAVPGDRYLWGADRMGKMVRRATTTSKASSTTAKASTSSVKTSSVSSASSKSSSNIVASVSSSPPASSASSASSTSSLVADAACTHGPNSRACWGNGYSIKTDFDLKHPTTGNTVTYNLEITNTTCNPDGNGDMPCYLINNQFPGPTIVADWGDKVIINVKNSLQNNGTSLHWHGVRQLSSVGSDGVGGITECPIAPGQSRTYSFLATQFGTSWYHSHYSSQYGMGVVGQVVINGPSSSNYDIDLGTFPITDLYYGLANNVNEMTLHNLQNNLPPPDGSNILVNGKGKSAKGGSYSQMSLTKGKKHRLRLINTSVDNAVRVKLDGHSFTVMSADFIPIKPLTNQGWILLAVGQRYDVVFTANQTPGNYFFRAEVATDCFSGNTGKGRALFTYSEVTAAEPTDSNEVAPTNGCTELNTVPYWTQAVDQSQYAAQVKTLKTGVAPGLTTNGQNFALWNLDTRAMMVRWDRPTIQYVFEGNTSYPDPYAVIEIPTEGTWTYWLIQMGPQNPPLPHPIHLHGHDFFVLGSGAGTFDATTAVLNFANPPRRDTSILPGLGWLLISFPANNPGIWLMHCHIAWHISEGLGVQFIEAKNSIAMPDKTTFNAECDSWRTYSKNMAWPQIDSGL
Assay: spectrophotometric oxidation at […] nm; Lineweaver-Burk
Format: biochemical
Conditions: pH 3.5, 30 °C; partially purified native enzyme; read-out: apparent Km

**Q.** How did the Km turn out when `CCn1c(=NN=c2sc3cc(S(=O)(=O)O)ccc3n2CC)sc2cc(S(=O)(=O)O)ccc21` [ABTS, 2,2’-azino-bis(3-ethylbenzothiazoline-6-sulfonic acid)] was run?
**A.** 584 µM
